The source of these data is ChEMBL document CHEMBL1121544, “Synthesis, absorption, and toxicity of N1,N8-bis(2,3-dihydroxybenzoyl)spermidine, a potent iron chelator” (J Med Chem, 1980).

Format in all cases: functional, organism-based
The species entered for assay [1] is Rattus norvegicus. The assay can be described thus: % chelator inside the intestinal sac in animal 1 at lower (distal) segment of the intestine starting from the proximal end.
The species named for assay [2] is Rattus norvegicus. Briefly: % chelator inside the intestinal sac in animal 1 at middle segment of the intestine starting from the proximal end.
The species entered for assay [3] is Rattus norvegicus. The assay can be described thus: % chelator inside the intestinal sac in animal 1 at upper segment of the intestine starting from the proximal end.
The species named for assay [4] is Rattus norvegicus. Briefly: % chelator inside the intestinal sac in animal 2 at lower (distal) segment of the intestine starting from the proximal end.
The species named for assay [5] is Rattus norvegicus. Briefly: % chelator inside the intestinal sac in animal 2 at middle segment of the intestine starting from the proximal end.
The species entered for assay [6] is Rattus norvegicus. Briefly: % chelator inside the intestinal sac in animal 2 at upper segment of the intestine starting from the proximal end.
Assay [7] is filed under the species Rattus norvegicus. Briefly: % chelator inside the intestinal sac in animal 3 at lower (distal) segment of the intestine starting from the proximal end.
The species entered for assay [8] is Rattus norvegicus. The assay can be described thus: % chelator inside the intestinal sac in animal 3 at middle segment of the intestine starting from the proximal end.
The species entered for assay [9] is Rattus norvegicus. The assay can be described thus: % chelator inside the intestinal sac in animal 3 at upper segment of the intestine starting from the proximal end.

`O=C(NCCCCNCCCNC(=O)c1cccc(O)c1O)c1cccc(O)c1O`: the Chelator in the assay listed under Rattus norvegicus [1] worked out at 44%; in the assay listed under Rattus norvegicus [2] it was 40%; in the assay listed under Rattus norvegicus [3] it was 42%; in the assay listed under Rattus norvegicus [4] it was 32%; in the assay filed under Rattus norvegicus [5], 35%; in the assay listed under Rattus norvegicus [6], 33%. The Chelator in the assay filed under Rattus norvegicus [7] was determined as 50%; in the assay listed under Rattus norvegicus [8], 44%; in the assay filed under Rattus norvegicus [9], 32%.
